According to patent US20250122219A1 (priority 2023, published 2025):

Assays:
[1] = Cytotoxicity assay in MT-4 cells; format: cell-based; details: human; uninfected MT-4 cells, 5 days incubation, Cell Titer Glo; read-out: MT4 CC50
Method in brief: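 Uninfected MT-4 cells exposed to serially diluted compounds in RPMI with 10% FBS for 5 days at 37 °C. Viability by Cell Titer Glo chemiluminescence. Puromycin […] as baseline cytotoxicity control.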

HIV-1 (IIIB) = test: Antiviral assay in MT-4 cells; format: cell-based; details: Human immunodeficiency virus 1, MT4, 120 h; HIV-1 IIIB in MT-4 cells, 5 days incubation, Cell Titer Glo; read-out: MT4 EC50
Method in brief: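 HIV-1 IIIB-infected MT-4 cells (fresh 1:250 virus stock dilution; mock-infected controls) incubated 5 days at 37 °C with serially diluted compounds in RPMI/10% FBS; 5 μM AZT as positive control. Cell viability read by CellTiter-Glo luminescence as measure of protection from viral replication.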

EC50 (HIV-1 (IIIB))	SMILES	CC50 at 5 days [1]
6.46 nM	CCCCCCCCCCCCCCCC(=O)Oc1c2n(cc(C(=O)NCc3ccc(F)cc3F)c1=O)[C@@H]1CN(C2=O)[C@@H](C)CC[C@]12CC(C)=NO2 [Example 14, (3′S,5S,7′R)-10′-((2,4-difluorobenzyl)carbamoyl)-3,3′-dimethyl-1′,11′-dioxo-1′,4′,5′,11′-tetrahydro-3′H,4H,7′H-spiro[isoxazole-5,6′-[2,7]methanopyrido[1,2-a][1,4]diazonin]-12′-yl palmitate]	≥ 50000 nM
9.48 nM	CCCCCCCCCCCCCCCCCC(=O)Oc1c2n(cc(C(=O)NCc3ccc(F)cc3F)c1=O)[C@@H]1CN(C2=O)[C@@H](C)CC[C@]12CC(OC)=NO2 [Example 6, (3′S,5S,7′R)-10′-((2,4-difluorobenzyl)carbamoyl)-3-methoxy-3′-methyl-1′,11′-dioxo-1′,4′,5′,11′-tetrahydro-3′H,4H,7′H-spiro[isoxazole-5,6′-[2,7]methanopyrido[1,2-a][1,4]diazonin]-12′-yl stearate]	≥ 50000 nM
5.14 nM	CCCCCCCCOC(=O)OCOc1c2n(cc(C(=O)NCc3ccc(F)cc3F)c1=O)[C@@H]1CN(C2=O)[C@@H](C)CC[C@]12CC(OC)=NO2 [Example 185, (((3′S,5S,7′R)-10′-((2,4-difluorobenzyl)carbamoyl)-3-methoxy-3′-methyl-1′,11′-dioxo-1′,4′,5′,11′-tetrahydro-3′H,4H,7′H-spiro[isoxazole-5,6′-[2,7]methanopyrido[1,2-a][1,4]diazonin]-12′-yl)oxy)methyl octyl carbonate]	≥ 50000 nM
1.24 nM	COC1=NO[C@@]2(CC[C@H](C)N3C[C@H]2n2cc(C(=O)NCc4ccc(F)cc4F)c(=O)c(OC(=O)CCC(C)C)c2C3=O)C1 [Example 56, (3′S,5S,7′R)-10′-((2,4-difluorobenzyl)carbamoyl)-3-methoxy-3′-methyl-1′,11′-dioxo-1′,4′,5′,11′-tetrahydro-3′H,4H,7′H-spiro[isoxazole-5,6′-[2,7]methanopyrido[1,2-a][1,4]diazonin]-12′-yl 4-methylpentanoate]	34700 nM
1.86 nM	CCCCCC(=O)OCOc1c2n(cc(C(=O)NCc3ccc(F)cc3F)c1=O)[C@@H]1CN(C2=O)[C@@H](C)CC[C@]12CC(OC)=NO2 [Example 91, (((3′S,5S,7′R)-10′-((2,4-difluorobenzyl)carbamoyl)-3-methoxy-3′-methyl-1′,11′-dioxo-1′,4′,5′,11′-tetrahydro-3′H,4H,7′H-spiro[isoxazole-5,6′-[2,7]methanopyrido[1,2-a][1,4]diazonin]-12′-yl)oxy)methyl hexanoate]	37300 nM
0.998 nM	CCCCCCCC(=O)OCOc1c2n(cc(C(=O)NCc3ccc(F)cc3F)c1=O)[C@@H]1CN(C2=O)[C@@H](C)CC[C@]12CC(OC)=NO2 [Example 95, (((3′S,5S,7′R)-10′-((2,4-difluorobenzyl)carbamoyl)-3-methoxy-3′-methyl-1′,11′-dioxo-1′,4′,5′,11′-tetrahydro-3′H,4H,7′H-spiro[isoxazole-5,6′-[2,7]methanopyrido[1,2-a][1,4]diazonin]-12′-yl)oxy)methyl octanoate]	≥ 50000 nM
5.93 nM	CCCCCCCCCCCCCCCCOC(=O)Oc1c2n(cc(C(=O)NCc3ccc(F)cc3F)c1=O)[C@@H]1CN(C2=O)[C@@H](C)CC[C@]12CC(OC)=NO2 [Example 145, (3′S,5S,7′R)-10′-((2,4-difluorobenzyl)carbamoyl)-3-methoxy-3′-methyl-1′,11′-dioxo-1′,4′,5′,11′-tetrahydro-3′H,4H,7′H-spiro[isoxazole-5,6′-[2,7]methanopyrido[1,2-a][1,4]diazonin]-12′-yl hexadecyl carbonate]	≥ 50000 nM
0.564 nM	CC1=NO[C@@]2(CC[C@H](C)N3C[C@H]2n2cc(C(=O)NCc4ccc(F)cc4F)c(=O)c(OCOC(=O)OCCCCCC(C)C)c2C3=O)C1 [Example 207, (((3′S,5S,7′R)-10′-((2,4-difluorobenzyl)carbamoyl)-3,3′-dimethyl-1′,11′-dioxo-1′,4′,5′,11′-tetrahydro-3′H,4H,7′H-spiro[isoxazole-5,6′-[2,7]methanopyrido[1,2-a][1,4]diazonin]-12′-yl)oxy)methyl (6-methylheptyl) carbonate]	11300 nM
0.592 nM	CCCCCCCC(=O)Oc1c2n(cc(C(=O)NCc3ccc(F)cc3F)c1=O)[C@@H]1CN(C2=O)[C@@H](C)CC[C@]12CC(OC)=NO2 [Example 40, (3′S,5S,7′R)-10′-((2,4-difluorobenzyl)carbamoyl)-3-methoxy-3′-methyl-1′,11′-dioxo-1′,4′,5′,11′-tetrahydro-3′H,4H,7′H-spiro[isoxazole-5,6′-[2,7]methanopyrido[1,2-a][1,4]diazonin]-12′-yl octanoate]	25100 nM
2.17 nM	COC1=NO[C@@]2(CC[C@H](C)N3C[C@H]2n2cc(C(=O)NCc4ccc(F)cc4F)c(=O)c(OC(=O)OCC(C)C)c2C3=O)C1 [Example 149, (3′S,5S,7′R)-10′-((2,4-difluorobenzyl)carbamoyl)-3-methoxy-3′-methyl-1′,11′-dioxo-1′,4′,5′,11′-tetrahydro-3′H,4H,7′H-spiro[isoxazole-5,6′-[2,7]methanopyrido[1,2-a][1,4]diazonin]-12′-yl isobutyl carbonate]	15900 nM
1.83 nM	CCCCCOC(=O)Oc1c2n(cc(C(=O)NCc3ccc(F)cc3F)c1=O)[C@@H]1CN(C2=O)[C@@H](C)CC[C@]12CC(OC)=NO2 [Example 130, (3′S,5S,7′R)-10′-((2,4-difluorobenzyl)carbamoyl)-3-methoxy-3′-methyl-1′,11′-dioxo-1′,4′,5′,11′-tetrahydro-3′H,4H,7′H-spiro[isoxazole-5,6′-[2,7]methanopyrido[1,2-a][1,4]diazonin]-12′-yl pentyl carbonate]	31700 nM
0.366 nM	CCCCOC(=O)OCOc1c2n(cc(C(=O)NCc3ccc(F)cc3F)c1=O)[C@@H]1CN(C2=O)[C@@H](C)CC[C@]12CC(OC)=NO2 [Example 177, butyl ((((3′S,5S,7′R)-10′-((2,4-difluorobenzyl)carbamoyl)-3-methoxy-3′-methyl-1′,11′-dioxo-1′,4′,5′,11′-tetrahydro-3′H,4H,7′H-spiro[isoxazole-5,6′-[2,7]methanopyrido[1,2-a][1,4]diazonin]-12′-yl)oxy)methyl) carbonate]	23900 nM
0.21 nM	CCCCOC(=O)Oc1c2n(cc(C(=O)NCc3ccc(F)cc3F)c1=O)[C@@H]1CN(C2=O)[C@@H](C)CC[C@]12CC(OC)=NO2 [Example 128, butyl ((3′S,5S,7′R)-10′-((2,4-difluorobenzyl)carbamoyl)-3-methoxy-3′-methyl-1′,11′-dioxo-1′,4′,5′,11′-tetrahydro-3′H,4H,7′H-spiro[isoxazole-5,6′-[2,7]methanopyrido[1,2-a][1,4]diazonin]-12′-yl) carbonate]	19300 nM
0.274 nM	CCCCCOC(=O)OCOc1c2n(cc(C(=O)NCc3ccc(F)cc3F)c1=O)[C@@H]1CN(C2=O)[C@@H](C)CC[C@]12CC(OC)=NO2 [Example 180, (((3′S,5S,7′R)-10′-((2,4-difluorobenzyl)carbamoyl)-3-methoxy-3′-methyl-1′,11′-dioxo-1′,4′,5′,11′-tetrahydro-3′H,4H,7′H-spiro[isoxazole-5,6′-[2,7]methanopyrido[1,2-a][1,4]diazonin]-12′-yl)oxy)methyl pentyl carbonate]	≥ 50000 nM
